The results in this text go back to publication PMC7012052, “Discovery of antimicrobial compounds targeting bacterial type FAD synthetases” (Journal of Enzyme Inhibition and Medicinal Chemistry, 2017).

For one assay, the target named is T1, CaFADS FMNAT activity (Corynebacterium ammoniagenes, UniProt Q59263).
T1 construct: Recombinant CaFADS was overexpressed in BL21 (DE3) E. coli cells and purified as previously described; made in house; host or cells: E. coli BL21 (DE3)
As to the kind of experiment: FMNAT activity of CaFADS: residual activity, IC50, inhibition mechanism (HPLC). Type of assay: biochemical. Particulars: for remaining activity at 250 µM: pH 7, read-out: % Residual FMNAT activity; for remaining activity at 50 µM: read-out: Residual activity (FMNAT); for Ki: global Lineweaver–Burk fit. The method, then: (§1) Then, the RFK and FMNAT reactions were individually assayed in the presence of the HTS hits at 25 °C. Reaction mixtures contained 50 µM ATP, 5 µM RF, 0.4 µM CaFADS in 20 mM PIPES, pH 7.0, 0.8 mM MgCl2, when assaying the RFK activity, and 50 µM ATP, 10 µM FMN, 0.4 µM CaFADS in 20 mM PIPES, pH 7.0, 10 mM MgCl2 when measuring the FMNAT reaction. […] Finally, reactions were stopped by boiling the samples at 100 °C for 5 min, and the precipitated protein was eliminated through centrifugation. The transformation of RF into FMN or FAD was evaluated through flavins separation by HPLC, as previously described. […] When assaying the HTS hits against the FMNAT activity of SpnFADS, similar conditions were used but samples contained 3 mM sodium dithionite to maintain the flavin in its reduced state. Data were processed as previously reported. All the experiments were performed in triplicate.
(§2) Experiments were performed and analysed through HPLC as described above. Positive controls (without any hit compound) were included in every reaction set. DMSO concentration was kept at 2.5% in all samples. All the experiments were performed in triplicate.
All the experiments were carried out in 20 mM PIPES, 10 mM MgCl2, pH 7.0, 2.5% DMSO at 25 °C, being the final reaction volume 500 µl. The reactions were initiated by addition of CaFADS at a final concentration of ∼40 nM, followed by 1 min incubation. The flavin composition of the supernatant was analysed as previously described. All the experiments were performed in triplicate. The effect of the inhibitors on Km and Vmax was determined by fitting the data sets to the Michaelis–Menten model. Additionally, data were globally fit to Lineweaver–Burk equations for competitive, uncompetitive, non-competitive or mixed inhibition, yielding Ki, as well as Ki′ when applying, for each compound (Equations (1–4), respectively).

The target in the next assay is T2, CaFADS RFK activity (Corynebacterium ammoniagenes, UniProt Q59263).
T2 construct: Recombinant CaFADS was overexpressed in BL21 (DE3) E. coli cells and purified as previously described; made in house; host or cells: E. coli BL21 (DE3)
T2 sequence (Q59263 whole entry): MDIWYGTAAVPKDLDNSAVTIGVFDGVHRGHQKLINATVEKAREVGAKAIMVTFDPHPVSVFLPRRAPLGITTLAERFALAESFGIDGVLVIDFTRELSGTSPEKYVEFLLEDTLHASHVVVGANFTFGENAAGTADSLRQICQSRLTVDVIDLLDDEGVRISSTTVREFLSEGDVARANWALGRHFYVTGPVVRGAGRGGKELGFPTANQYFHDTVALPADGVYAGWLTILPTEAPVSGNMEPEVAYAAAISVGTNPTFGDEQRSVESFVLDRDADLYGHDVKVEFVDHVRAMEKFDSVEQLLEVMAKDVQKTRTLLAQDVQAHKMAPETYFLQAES
As to the kind of experiment: RFK activity of CaFADS in the presence of HTS hits (flavins separated by HPLC). Format: biochemical. The conditions noted are these: pH 7, read-out: % Residual RFK activity. The method, then:
as §1

Assay [1] concerns M. tuberculosis ATCC 27,294. As to the kind of experiment: MIC by resazurin microplate assay (broth microdilution). Format: cell-based, Mycobacterium tuberculosis. The conditions noted are these: read-out: Minimal inhibitory concentration (MIC) M. tuberculosis. On the technique in general: Alamar Blue is a resazurin reagent that responds to reducing activity.
In the next assay the target is T3, CaFADS (Corynebacterium ammoniagenes, UniProt Q59263).
T3 construct: Recombinant CaFADS was overexpressed in BL21 (DE3) E. coli cells and purified as previously described; made in house; host or cells: E. coli BL21 (DE3)
T3 sequence (Q59263 whole entry): as above
Description: Isothermal titration calorimetry (ITC) of hits binding to CaFADS. The conditions noted are these: ITC 25 °C, for 24: Site 1–2. How it is done: ITC experiments were performed to characterise the protein’s affinity for the selected compounds, as also the thermodynamic parameters that drive the interaction. Experiments were carried out in an AutoITC200 (MicroCal) thermostated at 25 °C. In these experiments, ∼400 µM of each compound were used to titrate ∼25 µM CaFADS contained in a 200 µL cell. However, when saturation of the protein was not reached, higher concentrations of compounds were employed. The titrations were performed by stepwise injections of the titrating compound. Up to 19 injections of 2 µl were added to the cell sample and mixed using a 1000 rpm stirrer syringe. The compounds and the protein were dissolved in 20 mM PIPES, pH 7.0, 10 mM MgCl2 and degassed prior to titration. DMSO was added to the protein and ligand samples, until reach a final concentration of 3%. The association constant (Ka), the enthalpy variation (ΔH) and the binding stoichiometry (N), were obtained through non-lineal regression of the data to a model for one or two independent binding sites, implemented in Origin 7.0 (OriginLab) as previously described[27]^,[29]. The entropic contribution (−TΔS), the Gibbs free energy (ΔG) and the dissociation constant (Kd) were obtained through essential thermodynamic equations.
Background: In ITC the heat of successive injections is recorded.

The next assay relates to S. pneumoniae ATCC 49619. Description: MIC by resazurin microplate assay (broth microdilution). Format: cell-based, Streptococcus pneumoniae. Particulars: read-out: Minimal inhibitory concentration (MIC) S. pneumoniae.
Assay [2] relates to C. ammoniagenes ATCC 6872. The description is as above. Format: cell-based, Corynebacterium ammoniagenes. The conditions noted are these: for MIC: Corynebacterium ammoniagenes, ATCC6872, 16 h.
For the next assay, the target named is SpnFADS FMNAT activity (Streptococcus pneumoniae, UniProt A0A0H2UPY5). As to the kind of experiment: biochemical. Particulars: SpnFADS; 100 μM of each compound; 25 °C; n = 3, mean ± SD; read-out: FMNAT activity Res. activity. The method, then: as §1, §2
SpnFADS FMNAT activity, sequence (A0A0H2UPY5 entry or part of it): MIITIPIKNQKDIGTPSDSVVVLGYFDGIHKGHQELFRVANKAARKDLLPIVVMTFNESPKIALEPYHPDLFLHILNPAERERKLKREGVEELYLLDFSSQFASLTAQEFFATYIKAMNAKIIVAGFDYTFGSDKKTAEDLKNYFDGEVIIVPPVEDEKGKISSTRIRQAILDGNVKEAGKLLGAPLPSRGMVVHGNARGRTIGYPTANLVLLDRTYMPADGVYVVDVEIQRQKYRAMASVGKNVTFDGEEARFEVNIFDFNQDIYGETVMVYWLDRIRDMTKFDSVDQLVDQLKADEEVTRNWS
The next assay concerns the target SpnFADS RFK activity (Streptococcus pneumoniae, UniProt A0A0H2UPY5). Description: biochemical. The method, then: as §1, §2
[3] abbreviates: Mycobacterium tuberculosis, ATCC27, 144 h.
[4] abbreviates: Streptococcus pneumoniae, ATCC49619, 10 h.
[5] abbreviates: read-out: Minimal inhibitory concentration (MIC) C. ammoniagenes, assayed 0.125–64 μM, 16 h at 37 °C, BHI.
[6] abbreviates: read-out: Minimal inhibitory concentration (MIC) C. ammoniagenes.

Values after ≈ are worked out from the molar mass of the structure shown. Like-named read-outs stand apart in the source and are kept apart here.

T1 sequence (Q59263 whole entry): as the sequence (Q59263 whole entry) above
SpnFADS RFK activity, sequence (A0A0H2UPY5 entry or part of it): as the sequence (A0A0H2UPY5 entry or part of it) above

As usually defined, the IC50 is the concentration that inhibits the measured activity by half. For the molecule `CN1CCCN=C1/C=C/c1cccc(O)c1` [HTS hit 19, oxantel pamoate], at CaFADS FMNAT activity, the IC50 is 20.8 ± 2.6 µM, the remaining activity at 250 µM is at most 5% and the remaining activity at 50 µM was 43.3 ± 3.9%. Moreover, the remaining activity at 250 µM on CaFADS RFK activity was at least 75%.

The Ki is the equilibrium dissociation constant of an inhibitor or competing ligand from its target. Read a high Ki as weaker binding. One may read the Kd as a measure of binding affinity in units of concentration. The low end stands for tighter binding, the high end for weaker binding. As to `Cc1c(Nc2ncccc2C(=O)O)cccc1C(F)(F)F` [HTS hit 31, flunixin meglumine], the concentration for half-maximal inhibition (IC50) on CaFADS FMNAT activity was found to be 6.6 ± 0.6 µM. Further, the Inhibition mechanism result on CaFADS FMNAT activity (CaFADS FMNAT, saturating ATP (regarding the FMN substrate)) is “Non-competitive”; at CaFADS FMNAT activity (CaFADS FMNAT, saturating FMN (regarding the ATP substrate)), “Mixed”. Besides, the “K'i” value at CaFADS FMNAT activity (CaFADS FMNAT, saturating FMN, varying ATP, binding to the CaFADS-ATP complex) was 18.4 ± 4.0 µM. For the same molecule, the Ki turned out to be 0.09 ± 0.03 µM on CaFADS FMNAT activity (CaFADS FMNAT, saturating ATP, varying FMN) and 3.5 ± 1 µM at CaFADS FMNAT activity (CaFADS FMNAT, saturating FMN, varying ATP). Also, the remaining activity at 250 µM at CaFADS FMNAT activity was at most 5%; at CaFADS RFK activity, at least 75%. In addition, the remaining activity at 50 µM on CaFADS FMNAT activity worked out at 24.5 ± 1.9%. For the same molecule, the apparent kcat on CaFADS FMNAT activity (saturating ATP, varying FMN, inhibitor 1 μM) is 0.41 ± 0.0483 s⁻¹; at CaFADS FMNAT activity (saturating ATP, varying FMN, inhibitor 4 μM) it was 0.302 ± 0.0233 s⁻¹; at CaFADS FMNAT activity (saturating ATP, varying FMN, inhibitor 5 μM) it was 0.107 ± 0.02 s⁻¹; on CaFADS FMNAT activity (saturating ATP, varying FMN, inhibitor 7 μM), 0.05 ± 0.0067 s⁻¹; at CaFADS FMNAT activity (saturating ATP, varying FMN, inhibitor 10 μM) it was 0.05 ± 0.0067 s⁻¹; at CaFADS FMNAT activity (saturating FMN, varying ATP, inhibitor 4 μM) it was 0.328 ± 0.0167 s⁻¹. Moreover, the apparent kcat on CaFADS FMNAT activity (saturating FMN, varying ATP, inhibitor 5 μM) is 0.288 ± 0.0183 s⁻¹; at CaFADS FMNAT activity (saturating FMN, varying ATP, inhibitor 7 μM), 0.282 ± 0.01 s⁻¹; on CaFADS FMNAT activity (saturating FMN, varying ATP, inhibitor 10 μM), 0.255 ± 0.0217 s⁻¹; on CaFADS FMNAT activity (saturating FMN, varying ATP, inhibitor 12 μM), 0.23 ± 0.0167 s⁻¹. The MIC was over 64 µM in assay [1] (setting [3]), over 64 µM in the assay with S. pneumoniae ATCC 49619 (setting [4]), over 64 µM in assay [2] (setting [5]) and 32 to 64 µM in assay [2] (setting [6]). In addition, the “N (binding stoichiometry)” value at CaFADS (3% DMSO) is reported as “≈ 1”. The molecule also had a ΔG on CaFADS (average value where N ≈ 2) of -6.2 ± 0.6 kcal/mol. Also, the ΔH on CaFADS (average value where N ≈ 2) is -7.2 ± 0.4 kcal/mol. Besides, the “−TΔS” value on CaFADS (average value where N ≈ 2) came out at 1.1 ± 0.1 kcal/mol. This molecule displayed a Kd on CaFADS (Kd, 3% DMSO, average value for two hit molecules where N ≈ 2) of 30.9 ± 2.8 µM.

As to `CC/C(=C(/CC)c1ccc(O)cc1)c1ccc(O)cc1` [HTS hit 32, diethylstilbestrol], the results for the remaining activity at 250 µM on CaFADS FMNAT activity and at CaFADS RFK activity were 5 to 50% and 50 to 75%, respectively. The MIC in assay [1] (setting [3]) was over 64 µM; in the assay on S. pneumoniae ATCC 49619 (setting [4]), 64 µM (≈ 17.2 µg/mL); in assay [2] (setting [5]), 2 to 16 µM (≈ 0.537 to 4.29 µg/mL); in assay [2] (setting [6]) it was 8 µM (≈ 2.15 µg/mL).

Regarding `C/C=C(/C(=C/C)c1ccc(O)cc1)c1ccc(O)cc1` [HTS hit 35, dienestrol], the remaining activity at 250 µM is 5 to 50% on CaFADS FMNAT activity and at most 5% at CaFADS RFK activity. In addition, the MIC in assay [1] (setting [3]) was over 64 µM; in the assay on S. pneumoniae ATCC 49619 (setting [4]) it was 64 µM (≈ 17 µg/mL); in assay [2] (setting [5]) it was 2 to 16 µM (≈ 0.533 to 4.26 µg/mL); in assay [2] (setting [6]), 16 to 32 µM (≈ 4.26 to 8.52 µg/mL).

On to `O=C(O)CCc1nc(-c2ccccc2)c(-c2ccccc2)o1` [HTS hit 43, oxaprozin], for which the IC50 at CaFADS FMNAT activity amounted to 1 ± 0.5 µM; on SpnFADS RFK activity (SpnFADS, compounds assayed 0–100 μM, 25 °C, read-out: RFK activity IC50), 14 ± 2 µM. In addition, the results for the remaining activity at 250 µM at CaFADS FMNAT activity and on CaFADS RFK activity were at most 5% and at least 75%, respectively. For the same molecule, the remaining activity at 50 µM at CaFADS FMNAT activity stood at 20.3 ± 5.2%. Moreover, the activity at 100 µM was 100 ± 15% on SpnFADS FMNAT activity and 32 ± 3% at SpnFADS RFK activity (read-out: RFK activity Res. activity).

On to verteporfin [HTS hit 47], for which the MIC in assay [1] (assayed 0.125–64 μM, 6 days at 37 °C, Middlebrook 7H9) is on record as 8 µM; in the assay with S. pneumoniae ATCC 49619 (assayed 0.125–64 μM, 10 h at 37 °C, BHI with 4% FBS), 4 µM. Besides, in assay [2] (assayed 0.125–64 μM, 16 h at 37 °C, BHI), the “Minimal inhibitory concentration (MIC) C. ammoniagenes” value was in the range of 2 to 4 µM.
